This is an account of results in the METLIN SMRT retention time set (Domingo-Almenara et al. 2019).

The nature of this data set: gradient 5% acetonitrile 3 min, to 50% in 2 min, to 85% in 15 min, held 3 min, 100 µL/min. As to conditions: column: Zorbax Extend-C18 2.1 x 50 mm; eluents: water / acetonitrile, 0.1% formic acid. The method in brief: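 In both positive and negative ionization mode, a quadrupole time-of-flight mass spectrometer coupled to HPLC analyzed pure standards run in mixtures of ~100 molecules. The Zorbax Extend-C18 column (2.1 × 50 mm, 1.8 μm) was operated at 100 μL/min with water and acetonitrile, each containing 0.1% formic acid. The dead volume was 40 μL and the dwell volume 900 μL. Retention time came from adduct peaks that were computationally picked and individually inspected by hand.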
`CN1C(=O)Cc2cc(S(=O)(=O)NCc3ccc4c(c3)CCN4C(=O)c3ccc(Cl)cc3)ccc21`: the RP-LC retention time was 867 s.

In turn, `O=C(Nc1cccc(C(=O)N2CCN(c3cccc(Cl)c3)CC2)c1)C1=CSCCO1` registered an RP-LC retention time of 953 s.

`COCc1cn(C2CN(C(=O)c3ccc(OC)cc3OC)C2)nn1` gave an RP-LC retention time of 622 s.

`Clc1nc2nc3n(c2nc1Cl)CCC3` displayed an RP-LC retention time of 761 s.

`O=C(Nc1ccccc1Br)c1c(O)c2cccc3c2n(c1=O)CC3` displayed an RP-LC retention time of 1240 s.

`O=C(Cn1nc2c(SCc3ccc(Cl)cc3)nccn2c1=O)N1CCN(c2ccccc2)CC1` showed an RP-LC retention time of 1040 s.

Molecule `COc1cccc(-n2c(N3CCCC(C(=O)Nc4ccc(F)cc4)C3)nc3ccsc3c2=O)c1` (centres undefined) displayed an RP-LC retention time of 932 s.

`Cc1ccc(S(=O)(=O)N2C(=O)CCC2C(=O)N(C)C2CCCCC2)cc1` (centres undefined) gave an RP-LC retention time of 916 s.

For `CCOCCCNC(=O)C1CCN(S(C)(=O)=O)c2cc(Cl)ccc2O1` (centres undefined), the RP-LC retention time came to 783 s.

`Cc1nc(-c2ccccc2)c(-c2ccncc2)o1` gave an RP-LC retention time of 855 s.

For `Cc1nc(C(=O)N2CCCn3ccnc3C2C(C)C)co1` (centres undefined), the RP-LC retention time came to 556 s.

Molecule `Cc1ccc2oc(CN3CCN(C(=O)Nc4ccccc4)CC3)nc2c1` had an RP-LC retention time of 678 s.

`Cc1cc(C)c(C)c(S(=O)(=O)NC2CCN(c3ccc(=O)n(CC4CC4)n3)CC2)c1C` had an RP-LC retention time of 1040 s.

As for `O=C(CN1CCCc2nc(C3CC3)ncc2C1=O)NCCN1CCOCC1`, the RP-LC retention time stood at 554 s.

Consider `Cc1cccc(S(=O)(=O)N2CCC(n3cnnc3C(C)C)CC2)c1`, for which the RP-LC retention time was 735 s.

Molecule `CCCCn1cnc2c(-c3ccccc3)cn(CC(=O)Nc3ccc(Cl)cc3)c2c1=O` returned an RP-LC retention time of 1120 s.

Turning to `CCS(=O)(=O)Nc1ccc(-c2noc(COc3ccc(Cl)cc3)n2)cc1`, the RP-LC retention time was 1010 s.

Molecule `CN1c2cc(F)ccc2C(=O)NC12CCN(C(=O)Nc1ccccc1F)CC2` returned an RP-LC retention time of 735 s.

Consider `CC(=O)N1CCc2cc(-c3ccc(C(=O)NCCCN4CCCCC4)cc3)ccc21`, for which the RP-LC retention time was determined as 616 s.

`COCc1c(C(=O)O)nnn1-c1ccc(C)cc1F` gave an RP-LC retention time of 722 s.

Consider `O=C(NC1CC1)c1ccc(OCC2CCCN2C(=O)c2cccc(F)c2)cc1` (centres undefined), for which the RP-LC retention time came out at 778 s.

As to `CCn1cnc(S(=O)(=O)N2CCCC(C(=O)N3CCN(c4ncccn4)CC3)C2)c1` (centres undefined), the RP-LC retention time amounted to 657 s.

`Cc1ccc(CN2CCN(CC(=O)N3CCC4(CC3)OCCO4)C(=O)C2=O)cc1` gave an RP-LC retention time of 653 s.

Molecule `O=C(c1ccc2cc[nH]c2c1)N1CCN(c2cc(-c3ccccc3)[nH]n2)CC1` came in with an RP-LC retention time of 748 s.

In the case of `COc1ccc(Cl)cc1NC(=O)N1CCc2c(c(-c3nnc(-c4ccc(F)cc4)o3)nn2C)C1`, the RP-LC retention time came to 993 s.

As to `CCC1CCCCN1C(=O)c1cnc2nc(C)ccc2c1Nc1ccc(OC)c(Cl)c1` (centres undefined), the RP-LC retention time is 668 s.

Take `CC(Cc1cccs1)NC(=O)NCc1cccc2ccccc12` (centres undefined): the RP-LC retention time came out at 881 s.

In turn, `O=C(NCc1csc(-c2cccs2)n1)C1CCN(S(=O)(=O)c2ccccc2F)CC1` came in with an RP-LC retention time of 860 s.

For the molecule `Cc1ccc2c(c1)C(=O)NC1(CCN(C(=O)NCc3ccc(F)cc3)CC1)N2C`, the RP-LC retention time stood at 761 s.

`CCSc1nnc(NC(=O)Cc2csc(NC(=O)c3cnccn3)n2)s1` yielded an RP-LC retention time of 678 s.

Molecule `O=C(Cn1ccn2nc(-c3ccc(Cl)cc3)cc2c1=O)N1CCCc2ccccc21` showed an RP-LC retention time of 1080 s.

`O=C(CSc1cn(CCNC(=O)c2ccccc2)c2ccccc12)Nc1ccccc1F` had an RP-LC retention time of 863 s.

`CC(=O)N1CCc2cc(CNS(=O)(=O)c3ccc(Br)cc3)ccc21` registered an RP-LC retention time of 830 s.

As for `CCN1C(=O)c2cccnc2Sc2cc(NC(=O)c3sccc3C)ccc21`, the RP-LC retention time was determined as 842 s.

`COc1ccc(Br)cc1CNC(=O)C1CCCN(C(=O)c2[nH]c(C)cc2C)C1` (centres undefined): the RP-LC retention time worked out at 808 s.

Turning to `Cn1nc(CNC(=O)c2cnccn2)c2ccccc21`, the RP-LC retention time came out at 689 s.

`CCOc1ccc(-c2noc(Cn3c(=O)n(Cc4ccccc4)c(=O)c4sccc43)n2)cc1OC` showed an RP-LC retention time of 1110 s.

Regarding `COCCCNC(=O)C1CCN(Cc2cc3ccccc3n2Cc2ccccc2)CC1`, the RP-LC retention time amounted to 684 s.

In turn, `O=C(Nc1ccccc1)c1ccc(N2CCC(NCc3ccc(F)c(F)c3)C2)nc1` (centres undefined) gave an RP-LC retention time of 568 s.

Molecule `CN1C(=O)c2cccn2CC1C(=O)N1CCCCC1` (centres undefined) came in with an RP-LC retention time of 614 s.

`Cc1ccc2cc(CCC(=O)NCCN3CCCCCC3)c(=O)[nH]c2c1` displayed an RP-LC retention time of 628 s.

`CC(C)c1cc(C(=O)Nc2ccccc2)nn1C1CCS(=O)(=O)C1` (centres undefined) had an RP-LC retention time of 845 s.

Molecule `Cc1nnc2cc(N3CCN(S(=O)(=O)c4ccc(Br)cc4)CC3)cnn12` had an RP-LC retention time of 740 s.

Turning to `Cc1nnc(SCC(=O)N2c3ccccc3CCc3ccccc32)s1`, the RP-LC retention time was determined as 897 s.

Take `Cc1nn(-c2ccccc2)c(-n2cccc2)c1CNC(=O)NCc1ccc(F)cc1`: the RP-LC retention time worked out at 909 s.

Consider `Cn1c(=O)c(NCCc2c[nH]c3ccccc23)nc2ccncc21`, for which the RP-LC retention time stood at 619 s.

In turn, `COC(=O)c1cccc(NC(=O)NC(C(=O)N2CCc3ccccc32)C(C)C)c1` (centres undefined) yielded an RP-LC retention time of 610 s.

Turning to `COc1ccc(-c2nc(-c3cn(-c4cccc(Cl)c4)nn3)no2)cc1OC`, the RP-LC retention time was determined as 1040 s.

For the molecule `COc1ccc(NC(=O)NC2CCN(c3ccccc3)C2=O)c(OC)c1` (centres undefined), the RP-LC retention time worked out at 761 s.

The molecule `CC(C)NC(=O)c1ccc(OCC2CCCN(C(=O)c3ccc(F)cc3)C2)cc1` (centres undefined) returned an RP-LC retention time of 844 s.

`CC(C)S(=O)(=O)N1CC(c2nc(CCOCc3ccccc3)no2)C1` came in with an RP-LC retention time of 914 s.

As to `Cc1nn(-c2ccccc2)c(C)c1S(=O)(=O)N1CCC(C(=O)NC(C)(C)C)CC1`, the RP-LC retention time came out at 894 s.

With `CCNC(=O)C1CCN(C(=O)Nc2ccc(NC(=O)NCCC(C)C)cc2)CC1`, the RP-LC retention time was 662 s.

Take `Cc1nc(C)c(-c2nnc(NC(=O)C3CC(=O)N(c4ccc(F)cc4)C3)o2)s1` (centres undefined): the RP-LC retention time is 652 s.

Regarding `CNC(=O)C1CCCN(c2nc3ncn(CC(=O)NCc4cccc(OC)c4)c(=O)c3s2)C1` (centres undefined), the RP-LC retention time came to 621 s.

`CCOC(=O)c1cccc(NS(=O)(=O)c2cc(-c3cc(C)[nH]n3)ccc2C)c1` had an RP-LC retention time of 866 s.

The molecule `CSc1ccccc1CN1CCC(CNC(=O)c2ccccc2Cl)CC1` returned an RP-LC retention time of 722 s.

In turn, `O=C(Nc1ccc(F)c(Cl)c1)c1cn2c(n1)CSCC2` gave an RP-LC retention time of 807 s.

`O=C(Nc1cccnc1)C1CCN(S(=O)(=O)c2cccnc2)CC1`: the RP-LC retention time stood at 591 s.

`COc1cc(C(C)=O)ccc1OCC(=O)NCCn1cnc(-c2ccc(F)cc2)cc1=O` registered an RP-LC retention time of 661 s.

For the molecule `Cc1ccc(C)c(NC(=O)C2(C)Oc3cccnc3N(C)C2=O)c1` (centres undefined), the RP-LC retention time amounted to 836 s.

Take `Cc1nnc(N2CCCC(C(=O)NCc3ccccc3F)C2)c2nn(-c3ccccc3)c(C)c12` (centres undefined): the RP-LC retention time stood at 722 s.

The molecule `COCCC(=O)N1CCCn2nc(-c3cccc(OC)c3)cc2C1` returned an RP-LC retention time of 644 s.

As to `Cc1nnc2c(=O)n(CC(=O)N3CCCCC3)c3cccnc3n12`, the RP-LC retention time turned out to be 616 s.

On to `O=C(NCc1ccco1)C1CCN(S(=O)(=O)c2cc(C(=O)N3CCCCCC3)cs2)CC1`, for which the RP-LC retention time was determined as 815 s.

For `CC(C)(C)c1ccc(-c2nc(C3CC(=O)N(c4ccc(F)cc4)C3)no2)cc1` (centres undefined), the RP-LC retention time worked out at 1250 s.

`O=C(NCc1nc2cccnc2n1Cc1ccc(F)cc1)c1ccc(Br)o1`: the RP-LC retention time amounted to 757 s.

Regarding `COc1ccc(Cl)cc1NS(=O)(=O)c1cc2n(c1)CCN(CC(C)C)C2=O`, the RP-LC retention time was 868 s.

For the molecule `O=C(Nc1nc2cccc(-c3ccc(CN4CCS(=O)(=O)CC4)cc3)n2n1)C1CC1`, the RP-LC retention time was found to be 687 s.

As for `CCc1noc(C2CCCCN2C(=O)c2c[nH]c3ccccc23)n1` (centres undefined), the RP-LC retention time amounted to 647 s.

`Cc1ccc(Sc2nccnc2N2CCCC(C(=O)N3CCN(c4ccc(F)cc4)CC3)C2)cc1` (centres undefined) returned an RP-LC retention time of 1230 s.

In turn, `Cc1nc(-c2csc(S(=O)(=O)N3CCCC(C(=O)N4CCc5ccccc5C4)C3)c2)no1` (centres undefined) gave an RP-LC retention time of 977 s.

The molecule `CCn1ccc2c(cc(C(=O)Nc3cc(Cl)ccc3OC)n2C)c1=O` came in with an RP-LC retention time of 1150 s.

The molecule `O=C(CCC1CCCC1)Nc1cccc(-c2nnc3n2CCCC3)c1` returned an RP-LC retention time of 762 s.

With `CCc1noc(-c2cc(=O)n(CC(=O)NCc3ccccc3OC)c3ccccc23)n1`, the RP-LC retention time amounted to 900 s.

On to `CCNC(=O)C1CCCN(c2nc3ncn(CC(=O)Nc4ccc(F)cc4F)c(=O)c3s2)C1` (centres undefined), for which the RP-LC retention time amounted to 670 s.

In the case of `COc1ccc(C)cc1NC(=O)Cn1c(=O)c(CCC(=O)NCC(C)C)nc2ccccc21`, the RP-LC retention time came to 852 s.

For `CC(=O)N1CCc2cc(N3CC(C(=O)Nc4cccc(C)c4)CC3=O)ccc21` (centres undefined), the RP-LC retention time was 712 s.

In turn, `COc1ccc(OC)c(CNC(=O)C2CCN(c3cncnc3N3CCCCC3)CC2)c1` displayed an RP-LC retention time of 688 s.
